Earlier results on two molecules are cited in publication PMC3993928 (Journal of Medicinal Chemistry, 2014).

Broadly, the Ki is the equilibrium dissociation constant of an inhibitor or competing ligand from its target. As a reminder, the EC50 is the midpoint of the concentration-response curve.

One series has as its system C57BL/6 mice. The note with it: mouse WWTW.
Series [1] concerns the target T1, μ opioid receptor (MOPr) (Rattus norvegicus, UniProt P33535). Particulars: read-out: Ki (nM) MOPr; [3H]diprenorphine displacement.
For series [2], the target named is T2, δ opioid receptor (DOPr) (Rattus norvegicus, UniProt P33533). Particulars: read-out: Ki (nM) DOPr; [3H]diprenorphine displacement.
For series [3], the target named is T3, κ opioid receptor (KOPr) (Homo sapiens, UniProt P41145). The note with it: read-out: Ki (nM) KOPr; [3H]diprenorphine displacement.
For series [4], the target named is T1, μ opioid receptor (MOPr). The note with it: read-out: EC50 (nM), MOPr; [35S]GTPγS binding. (In general: GTPγS is a poorly hydrolysed GTP analogue; its binding reports G protein activation.)
In series [5] the target is T2, δ opioid receptor (DOPr). The note with it: relative to DPDPE at 10 μM; dns = does not stimulate.
Series [6] addresses T3, κ opioid receptor (KOPr). Particulars: relative to U69,593 at 10 μM; dns = does not stimulate.

T1 sequence (P33535 whole entry): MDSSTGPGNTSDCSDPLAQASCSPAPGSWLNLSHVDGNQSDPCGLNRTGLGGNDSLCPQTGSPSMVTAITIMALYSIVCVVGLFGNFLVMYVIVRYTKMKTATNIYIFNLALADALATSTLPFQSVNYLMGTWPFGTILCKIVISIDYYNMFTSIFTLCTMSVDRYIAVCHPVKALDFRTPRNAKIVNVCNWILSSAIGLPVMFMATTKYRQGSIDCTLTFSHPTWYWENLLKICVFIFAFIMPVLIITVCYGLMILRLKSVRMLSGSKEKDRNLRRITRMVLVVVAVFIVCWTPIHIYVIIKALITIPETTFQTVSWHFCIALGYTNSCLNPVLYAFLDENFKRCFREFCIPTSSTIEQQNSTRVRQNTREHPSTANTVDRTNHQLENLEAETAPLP
T2 sequence (P33533 whole entry): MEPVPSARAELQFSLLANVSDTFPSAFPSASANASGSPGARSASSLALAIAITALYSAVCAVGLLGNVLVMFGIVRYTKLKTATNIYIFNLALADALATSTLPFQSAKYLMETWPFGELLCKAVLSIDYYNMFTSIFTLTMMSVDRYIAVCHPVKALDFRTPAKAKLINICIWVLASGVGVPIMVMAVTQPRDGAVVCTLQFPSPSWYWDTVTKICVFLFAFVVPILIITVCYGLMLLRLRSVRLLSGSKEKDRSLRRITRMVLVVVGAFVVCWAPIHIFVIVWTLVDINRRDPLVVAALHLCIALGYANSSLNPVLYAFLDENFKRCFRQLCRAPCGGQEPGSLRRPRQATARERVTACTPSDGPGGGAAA
T3 sequence (P41145 whole entry): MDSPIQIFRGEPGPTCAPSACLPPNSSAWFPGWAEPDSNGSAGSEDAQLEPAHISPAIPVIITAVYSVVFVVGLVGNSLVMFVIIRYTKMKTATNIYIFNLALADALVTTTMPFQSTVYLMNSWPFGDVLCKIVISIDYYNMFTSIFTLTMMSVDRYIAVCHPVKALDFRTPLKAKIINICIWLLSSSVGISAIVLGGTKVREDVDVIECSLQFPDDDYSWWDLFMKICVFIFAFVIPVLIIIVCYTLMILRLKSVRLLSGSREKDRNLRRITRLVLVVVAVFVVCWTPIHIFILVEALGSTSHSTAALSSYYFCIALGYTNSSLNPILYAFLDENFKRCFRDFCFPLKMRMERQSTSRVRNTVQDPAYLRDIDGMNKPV

Consider `CN1CC[C@]23c4c5ccc(O)c4O[C@H]2[C@@H](O)C=C[C@H]3[C@H]1C5` [morphine], for which the “duration of antinociceptive action relative to 4 (fold longer)” value with C57BL/6 mice is given as “approximately 2 fold”.
Consider “Dmt-c(SEtS)[DCys-Aci-DPen]OH [compound 1]”, for which the Ki on μ opioid receptor (MOPr) [1] was 2.4 ± 0.7 nM; on δ opioid receptor (DOPr) [2], 2.3 ± 0.5 nM; at κ opioid receptor (KOPr) [3] it was 776 ± 149 nM. Also, the EC50 at μ opioid receptor (MOPr) [4] was 4.7 ± 0.7 nM. In addition, at δ opioid receptor (DOPr) [5], the “efficacy (% of control), DOPr” value is “dns”. Besides, the “efficacy (% of control), KOPr” value on κ opioid receptor (KOPr) [6] is on record as “dns”.
